Where two headings read alike, the source gives them in different places.
Key:
[1] = system: Akt phosphorylation (Ser473-p-Akt) in PC-3 cells; assay: Inhibition of p-Akt phosphorylation level in PC-3 cells (cell level fluorescence imaging); type: cell-based; settings: Homo sapiens, read-out: PC-3 cell (IC50/nM)
Experimental: This experiment was performed by cell level fluorescence image processing method.
Triton X-100: 10% aqueous Triton X-100 solution (Sigma T8787-100 mL) was prepared, stored at 4° C. and diluted by 1:100 to give 0.1% Triton X-100 aqueous solution for use in the experiment.
Prodium Iodide (PI): 1 mg/mL (1.5 mM) PI (Sigma P4170) storage solution was prepared with PBS and stored at −25° C. in the dark. For use, the PI storage solution was diluted with PBS by 1:1000 to give a 1.5 μM solution and used in dark.
PC-3 cells in logarithmic growth phase were digested with 0.25% EDTA trypsin. 3000 cells/90 μL were seeded in a 96-well plate (BD 356692) and cultured at 37° C. and 5% CO2. After the cells adhered, 10 μL of the compound to be tested which was gradiently diluted 3 times (0.0046 to 10 μM, 8 concentration points, in duplicate) was added and incubated for 2 hours, followed by addition of 100 μL of 4% paraformaldehyde (DINGGUO AR-0211) and incubated at room temperature for 45 minutes. Then 100 μL of 0.1% Triton X-100 solution was added and incubated for another 30 minutes.
Triton X-100 solution was removed and the cells were rinsed with 200 μl of PBS twice (300 rpm vibration for 1 minute). The blocking solution (1% BSA solution in PBS) (Genview FA016-100G) was added and incubated at room temperature for 2 hours. The plate was rinsed with PBS once (300 rpm, 1 min) and 30 μL of Ser473-p-Akt antibody (cell signaling 4060L) diluted with 0.1% BSA was added and incubated overnight at 4° C. Ser473-p-Akt antibody was removed and the plate was rinsed with PBS twice (300 rpm, 1 minute). 35 μL of Alexa Flour 488 donkey anti-rabbit IgG (Invitrogen A21206) was added and incubated at room temperature for 1.5 hours. The plate was rinsed with PBS twice (300 rpm, 1 minute) and 35 μL of 1.5 μM PI was added and incubated at room temperature for 0.5 h. The fluorescence intensity was measured with Acumen eX3 (TTP LabTech).
10 μM BEZ235 (Selleck S1009) treatment group was negative control and DMSO treatment group was positive control. Inhibition ratio %=[1−(the mean value of the fluorescence intensity of the compound to be tested−the mean value of the fluorescence intensity of the negative control group)/(the mean value of the fluorescence intensity of the positive control group−the mean value of the fluorescence intensity of the negative control group)]×100%

[2] = Metabolism stability assay in liver microsomes; type: in vitro ADME, mouse; settings: liver microsomal metabolism in mice
Experimental: Buffer A: 1 L solution of 100 mM potassium dihydrogen phosphate containing 1 mM EDTA (Sigma, V900157-100G) was prepared. Buffer B: 1 L solution of 100 mM dipotassium hydrogen phosphate containing 1 mM EDTA was prepared. Buffer C: 700 mL of buffer B was taken out and titrated with buffer A to pH 7.4.
2.1 10 μl of 10 mM compound to be tested and 10 μl of 10 mM ketanserin were taken out and 190 μl of pure acetonitrile was added to each of them to prepare 500 μM compound to be tested and ketanserin, respectively.
2.2 20 μl (20 mg/mL) of liver microsomes (XENOTECH, H0610) stock solution was added to 513.4 μl of buffer C on wet ice. 0.75 mg/mL liver microsomal solution was obtained.
2.3 1.5 μl of each of the above-mentioned compound to be tested and ketanserin solution was added to 498.5 μl of liver microsomal solution (0.7 5 mg/mL) respectively on wet ice. 1.5 μM mixed solution of compound to be tested and 1.5 μM mixed solution of ketanserin were obtained.
2.4 At the time points 0, 5, 15, 30, 45, and 60 min, 30 μl of the mixed solution of compound to be tested and 30 μl of the mixed solution of ketanserin were dispensed into the reaction plate on wet ice, respectively.
2.5 5 mg reduced coenzyme II (Roche, 10621706001) was weighed and dissolved in 1 mL of buffer C. 6 mM reduced coenzyme II solution was obtained. The reduced coenzyme II solution was dispensed into the reaction plate.
2.6 Imipramine was dissolved to give a 10 mM solution. 10 μl imipramine solution was added to 100 mL of blank acetonitrile to generate the internal reference.
2.7 At 0 min, 135 μL of iced acetonitrile (Merck, UN 1648) containing the internal reference was added to each well and then 15 μL of buffer C was added.
2.8 The reaction plate was placed into a 37° C. water bath incubator for 5 min. In the reaction plate, 15 μL of reduced coenzyme II solution was added to each well to initiate the reaction, and the time keeping was started. At the time points of 5, 15, 30, 45, and 60 min, 135 μL of iced acetonitrile containing the internal reference was added to each well to terminate the reaction.
2.9 The reaction plate was sealed with an aluminum film, placed on a vibration mixer and shaken at 500 rpm for 5 min. The plate was then centrifuged in a centrifuge at 3750 rp for 15 min.
2.10 The sample was diluted with pure water in accordance with the ratio of 1:1 and detected by LC/MS.
Half-life: 0.693/K (the slope by plotting based on the incubation time and logarithm of the concentration value)
Clearance ratio: (0.693/half-life)*(1/protein concentration (0.5 mg/mL))*(proportional factor)
Wherein, the K value and the proportional factor were calculated by those skilled in the art according to the methods described in the prior art and contained in the instructions of the liver microsome product.

[3] = system: T47D cells; assay: Cell inhibitory activity detected by MTT assay, T47D; type: cell-based; settings: Homo sapiens, T47D, 72 h, read-out: T47D cell (IC50/nM), cell growth inhibition
[4] = Akt phosphorylation in PC-3 cells, 2 hours incubation

Compound	IC50 [1, 4] [nM]	Clearance ratio (mL/min/kg) mouse [2] [mL/min/kg]	IC50 [3] [nM]	IC50 ([1]; PC-3, 2 h) [nM]
CS(=O)(=O)C1(c2cc(-c3cnc(N)cc3C(F)(F)F)nc(N3CCOCC3)n2)CCC1 [Compound S-4]	248	442.63	124	–
C[C@H]1COCCN1c1nc(-c2cnc(N)cc2C(F)(F)F)cc(C2(S(C)(=O)=O)CCC2)n1 [Compound S-9]	184	–	93	–
CS(=O)(=O)C1(c2cc(-c3cnc(N)cc3C(F)(F)F)nc(N3CCOCC3)n2)CCCC1 [Compound S-10]	384	–	218	–
CC(C)S(=O)(=O)C1(c2cc(-c3cnc(N)cc3C(F)(F)F)nc(N3CCOC[C@@H]3C)n2)CCC1 [Compound S-13, (S)-5-(6-(1-(isopropylsulfonyl)cyclobutyl)-2-(3-methylmorpholino)pyrimidin-4-yl)-4-(trifluoromethyl)pyridin-2-amine]	463	–	244	–
CC(C)S(=O)(=O)C1(c2cc(-c3cnc(N)cc3C(F)(F)F)nc(N3CCOCC3)n2)CC1 [Compound S-18]	430	–	160	–
CC(C)S(=O)(=O)C1(c2cc(-c3cnc(N)cc3C(F)(F)F)nc(N3CCOCC3)n2)CCC1 [Compound S-19]	575	–	178	–
Nc1cc(C(F)(F)F)c(-c2cc(C3(S(=O)(=O)c4ccccc4)CCC3)nc(N3CCOCC3)n2)cn1 [Compound S-20]	–	5641.44	332	–
CCS(=O)(=O)C1(c2cc(-c3cnc(N)cc3C(F)(F)F)nc(N3CCOC[C@@H]3C)n2)CCC1 [Compound S-23]	366	–	20	–
C[C@H]1COCCN1c1nc(-c2cnc(N)nc2C(F)(F)F)cc(C2(S(C)(=O)=O)CCC2)n1 [Compound S-30]	101	–	100	–
C[C@H]1COCCN1c1nc(-c2cnc(N)cc2Cl)cc(C2(S(C)(=O)=O)CCC2)n1 [Compound S-31]	126	–	73	–
C[C@H]1COCCN1c1nc(-c2ccc(N)nc2)cc(C2(S(C)(=O)=O)CCC2)n1 [Compound S-32]	74	–	95	–
C[C@H]1COCCN1c1nc(-c2cnc(N)nc2)cc(C2(S(C)(=O)=O)CCC2)n1 [Compound S-33]	109	–	120	–
CS(=O)(=O)C1(c2cc(-c3cnc(N)cc3Cl)nc(N3CCOCC3)n2)CC1 [Compound S-37, 4-chloro-5-(6-(1-(methylsulfonyl)cyclopropyl)-2-morpholinopyrimidin-4-yl)pyridin-2-amine]	198	–	202	–
CC(C)(c1cc(-c2cnc(N)cc2Cl)nc(N2CCOCC2)n1)S(C)(=O)=O [Compound S-38, 4-chloro-5-(6-(2-(methylsulfonyl)prop-2-yl)-2-morpholinopyrimidin-4-yl)pyridin-2-amine]	332	103.77	244	–
C[C@H]1COCCN1c1nc(-c2cnc(N)cc2C(F)(F)F)cc(C(C)(C)S(C)(=O)=O)n1 [Compound S-41]	414	–	148	–
CC(C)(c1cc(-c2cnc(N)nc2C(F)(F)F)nc(N2CCOCC2)n1)S(C)(=O)=O [Compound S-45]	156	89.54	163	–
CS(=O)(=O)C1(c2cc(-c3cnc(N)nc3C(F)(F)F)nc(N3CCOCC3)n2)CC1 [Compound S-46]	131	100.1	137	–
CCS(=O)(=O)C1(c2cc(-c3cnc(N)cc3C(F)(F)F)nc(N3CCOCC3)n2)CCC1 [Compound S-49, 5-(6-(1-(ethylsulfonyl)cyclobutyl)-2-morpholinopyrimidin-4-yl)-4-(trifluoromethyl)pyridin-2-amine]	382	–	208	–
CS(=O)(=O)C(F)(F)c1cc(-c2cnc(N)cc2Cl)nc(N2CCOCC2)n1 [Compound S-54, 4-chloro-5-(6-(difluoro(methylsulfonyl)methyl)-2-morpholinopyrimidin-4-yl)pyridin-2-amine]	488	–	255	–
Nc1cc(C(F)(F)F)c(-c2cc(C3(S(=O)(=O)c4ccccc4F)CC3)nc(N3CCOCC3)n2)cn1 [Compound S-58]	367	–	129	–
COC(C)(C)c1cc(-c2cnc(N)cc2C(F)(F)F)nc(N2CCOCC2)n1 [Compound S-71, 5-(6-(2-methoxypropan-2-yl)-2-morpholinopyrimidin-4-yl)-4-(trifluoromethyl) pyridin-2-amine]	–	–	165	555

Further lines, with some results ahead:

IC50 [1, 4] [nM]	Clearance ratio (mL/min/kg) mouse [2] [mL/min/kg]	IC50 [3] [nM]	Compound	IC50 ([1]; PC-3, 2 h) [nM]
253	–	147	Nc1cc(Cl)c(-c2cc(C3(S(=O)(=O)c4ccccc4F)CC3)nc(N3CCOCC3)n2)cn1 [Compound S-66]	–
187	–	88	C[C@@H]1COCCN1c1nc(-c2cnc(N)cc2Cl)cc(C(C)(C)S(C)(=O)=O)n1 [Compound S-67]	–
183	–	73	C[C@@H]1COCCN1c1nc(-c2cnc(N)cc2Cl)cc(C2(S(C)(=O)=O)CC2)n1 [Compound S-68]	–
385	–	249	COC(C)(C)c1cc(-c2cnc(N)cc2Cl)nc(N2CCOC[C@@H]2C)n1 [Compound S-75]	–
531	–	289	COC(C)(C)c1cc(-c2cnc(N)cc2Cl)nc(N2CCOCC2)n1 [Compound S-76]	–
215	–	123	CC(C)(c1cc(-c2cnc(N)cc2F)nc(N2CCOCC2)n1)S(C)(=O)=O [Compound S-81]	–
196	–	30	C[C@H]1COCCN1c1nc(-c2cnc(N)cc2F)cc(C2(S(C)(=O)=O)CC2)n1 [Compound S-83]	–
121	–	33	C[C@H]1COCCN1c1nc(-c2cnc(N)cc2F)cc(C(C)(C)S(C)(=O)=O)n1 [Compound S-84]	–
161	–	63	CCS(=O)(=O)C1(c2cc(-c3cnc(N)cc3F)nc(N3CCOCC3)n2)CC1 [Compound S-85]	–
240	–	69	CC(C)S(=O)(=O)C1(c2cc(-c3cnc(N)cc3F)nc(N3CCOCC3)n2)CC1 [Compound S-86]	–
349	–	81	Nc1cc(F)c(-c2cc(C3(S(=O)(=O)C4CC4)CC3)nc(N3CCOCC3)n2)cn1 [Compound S-88]	–
1020	–	854	CS(=O)(=O)C1(c2cc(N3CCOCC3)nc(-c3cnc(N)cc3C(F)(F)F)n2)CC1 [reference compound]	–

— patent US10227324B2 (Shanghai Haiyan Pharmaceutical Technology Co., Ltd., priority 2014, dated 2019)
